Target: T1, MMP12 (Homo sapiens, UniProt P39900)
T1 construct: Recombinant human MMP12 catalytic domain may be expressed and purified; made in house
Assay: Activity of purified MMP on substrate (reporter release)
Format: biochemical
Settings: 30 μM substrate; MMP Conc. 0.27 nM; ABL010827
From the text: In order to confirm the specificity of the substrates for various MMPs, standard enzymatic assays were adapted to monitor the release of reporter. The reporter was either analysed by a LC-MS method as described in Example 3a, or by a LC-UV method as described in Example 4.
Recombinant human MMP12 catalytic domain may be expressed and purified as described by Parkar A. A. et al, (2000), Protein Expression and Purification, 20, 152. The purified enzyme can be used to monitor activity of substrates as follows: MMP12 (50 ng/ml final […]) in assay buffer (0.1M “Tris-HCl” (trade mark) buffer, pH 7.3 containing 0.1M NaCl, 20 mM CaCl2, 0.020 mM ZnCl and 0.05% (w/v) “Brij 35” (trade mark) detergent) in the presence or absence of inhibitors. Activity is determined by measuring the release of reporter 4-nitroaniline by the using the method in Example 3a.

T1 sequence (P39900 106-263 limits assumed): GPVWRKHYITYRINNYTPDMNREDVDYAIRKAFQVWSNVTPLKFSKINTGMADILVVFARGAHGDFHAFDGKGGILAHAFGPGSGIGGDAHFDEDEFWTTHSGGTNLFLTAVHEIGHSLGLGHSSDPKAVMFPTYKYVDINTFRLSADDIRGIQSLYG

COC(=O)CCNC(=O)[C@H](CC(C)C)NC(=O)[C@@H](NC(=O)CNC(=O)[C@H](CC(C)C)NC(=O)[C@@H]1CCCN1C(C)=O)Nc1ccc([N+](=O)[O-])cc1 [Example 1.1, Methyl 1-acetyl-L-prolyl-L-leucylglycyl-α-R-(4-nitrophenylamino)-glycyl-L-leucyl-β-alaninate]
Activity: 7.7 units/s

From patent US20100021940A1, “Method for Determining the Activity of a Protease in a Sample” (ASTRAZENECA AB, priority 2006, published 2010)
